Broadly, the IC50 is the point on the concentration scale where inhibition reaches its midpoint. Read a high IC50 as weaker potency in that assay.

The target in the test is human LPA1 receptor (Homo sapiens (Human), UniProt Q92633). The test is described as follows: Beta-arrestin recruitment assay to determine IC50 values for human LPAR1. It is filed as cell-based. As to conditions: antagonist mode, Tango EDG2-bla U2OS cells, LPA 18:1 500 nM final. The method, boiled down: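 Tango EDG2-bla U2OS cells: LPA-driven beta-arrestin/TEV protease recruitment releases Gal4-VP16, inducing beta-lactamase reporter read with live-cell substrate. Cells seeded 20 h at 37 °C beforehand. IC50 is antagonist concentration inhibiting 50% of maximal response.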
human LPA1 receptor, sequence (Q92633 whole entry, the tested form may be a part): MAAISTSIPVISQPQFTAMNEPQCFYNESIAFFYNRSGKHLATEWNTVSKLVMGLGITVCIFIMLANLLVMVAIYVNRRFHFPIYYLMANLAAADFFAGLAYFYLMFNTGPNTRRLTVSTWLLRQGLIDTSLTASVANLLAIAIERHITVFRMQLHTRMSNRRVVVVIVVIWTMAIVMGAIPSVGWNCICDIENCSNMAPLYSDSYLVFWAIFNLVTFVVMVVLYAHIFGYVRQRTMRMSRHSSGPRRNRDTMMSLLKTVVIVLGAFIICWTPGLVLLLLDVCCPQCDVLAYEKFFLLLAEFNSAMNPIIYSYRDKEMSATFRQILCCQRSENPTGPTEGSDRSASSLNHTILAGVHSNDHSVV
For orientation: Recruitment of arrestin is a read-out of receptor activation apart from second messengers.
In turn, `Cc1ccc(NC(=O)C2(c3ccccc3C(C)C)CN(c3ccnc(C(=O)O)n3)C2)c(OC(F)F)n1` [Ex 18-11, 4-(3-((2-(difluoromethoxy)-6-methylpyridin-3-yl)carbamoyl)-3-(2-isopropylphenyl)azetidin-1-yl)pyrimidine-2-carboxylic acid] had an IC50 of 34 nM.

For `COC(=O)c1cc(N2CC(C(=O)Nc3ccc(C)nc3OC(F)F)(c3ccccc3C(C)C)C2)ncn1` [Ex 18-12, methyl 6-(3-((2-(difluoromethoxy)-6-methylpyridin-3-yl)carbamoyl)-3-(2-isopropylphenyl)azetidin-1-yl)pyrimidine-4-carboxylate], the IC50 came to 11 nM. This IC50 lies about 3.1-fold lower than the previous one.

In turn, `Cc1ccc(NC(=O)C2(c3ccccc3C(C)C)CN(c3cc(C(=O)O)ncn3)C2)c(OC(F)F)n1` [Ex 18-13, 6-(3-((2-(difluoromethoxy)-6-methylpyridin-3-yl)carbamoyl)-3-(2-isopropylphenyl)azetidin-1-yl)pyrimidine-4-carboxylic acid] showed an IC50 of 17 nM.

`CCOC(=O)c1ccnc(N2CC(C(=O)Nc3ccc(C)nc3OC(F)F)(c3ccccc3C(C)C)C2)n1` [Ex 18-14, ethyl 2-(3-((2-(difluoromethoxy)-6-methylpyridin-3-yl)carbamoyl)-3-(2-isopropylphenyl)azetidin-1-yl)pyrimidine-4-carboxylate] came in with an IC50 of 560 nM. Compared with the last molecule, the IC50 is about 33-fold higher.

`Cc1ccc(NC(=O)C2(c3ccccc3C(C)C)CN(c3nccc(C(=O)O)n3)C2)c(OC(F)F)n1` [Ex 18-15, 2-(3-((2-(difluoromethoxy)-6-methylpyridin-3-yl)carbamoyl)-3-(2-isopropylphenyl)azetidin-1-yl)pyrimidine-4-carboxylic acid] yielded an IC50 of 47 nM.

As to `COC(=O)C1(c2ncc(N3CC(C(=O)Nc4ccc(C)nc4OC(F)F)(c4ccccc4C(C)C)C3)cn2)CC1` [Ex 18-16, methyl 1-(5-(3-((2-(difluoromethoxy)-6-methylpyridin-3-yl)carbamoyl)-3-(2-isopropylphenyl)azetidin-1-yl)pyrimidin-2-yl)cyclopropane-1-carboxylate], the IC50 turned out to be 2 nM.

The molecule `Cc1ccc(NC(=O)C2(c3ccccc3C(C)C)CN(c3cnc(C4(C(=O)O)CC4)nc3)C2)c(OC(F)F)n1` [Ex 18-17, 1-(5-(3-((2-(difluoromethoxy)-6-methylpyridin-3-yl)carbamoyl)-3-(2-isopropylphenyl)azetidin-1-yl)pyrimidin-2-yl)cyclopropane-1-carboxylic acid] yielded an IC50 of 8 nM.

Molecule `Cc1ccc(NC(=O)C2(c3ccccc3C(C)C)CN(c3cc(F)ccn3)C2)c(OC(F)F)n1` [Ex 18-18, N-(2-(difluoromethoxy)-6-methylpyridin-3-yl)-1-(4-fluoropyridin-2-yl)-3-(2-isopropylphenyl)azetidine-3-carboxamide] registered an IC50 of 1 nM.

On to `Cc1ccc(NC(=O)C2(c3ccccc3C(C)C)CN(c3ccncc3F)C2)c(OC(F)F)n1` [Ex 18-19, N-(2-(difluoromethoxy)-6-methylpyridin-3-yl)-1-(3-fluoropyridin-4-yl)-3-(2-isopropylphenyl)azetidine-3-carboxamide], for which the IC50 worked out at 2 nM.

`Cc1ccc(NC(=O)C2(c3ccccc3C(C)C)CN(c3ncncc3F)C2)c(OC(F)F)n1` [Ex 18-20, N-(2-(difluoromethoxy)-6-methylpyridin-3-yl)-1-(5-fluoropyrimidin-4-yl)-3-(2-isopropylphenyl)azetidine-3-carboxamide] registered an IC50 of 2 nM. This lies in the single-digit nanomolar range.

In turn, `CC(C)c1ccccc1C1(C(=O)Nc2cccnc2OC(F)F)CN(c2ncncc2F)C1` [Ex 18-21, N-(2-(difluoromethoxy)pyridin-3-yl)-1-(5-fluoropyrimidin-4-yl)-3-(2-isopropylphenyl)azetidine-3-carboxamide] showed an IC50 of 10 nM.

`Cc1ccc(NC(=O)C2(c3ccccc3C(C)C)CN(c3ccc(C#N)cn3)C2)c(OC(F)F)n1` [Ex 18-22, 1-(5-cyanopyridin-2-yl)-N-(2-(difluoromethoxy)-6-methylpyridin-3-yl)-3-(2-isopropylphenyl)azetidine-3-carboxamide] registered an IC50 of 1 nM.

The molecule `CC(C)c1ccccc1C1(C(=O)Nc2cccnc2OC(F)F)CN(c2ccc(C#N)cn2)C1` [Ex 18-23, 1-(5-cyanopyridin-2-yl)-N-(2-(difluoromethoxy)pyridin-3-yl)-3-(2-isopropylphenyl)azetidine-3-carboxamide] registered a 50% inhibitory concentration (IC50) of 4 nM.

With `Cc1ccc(NC(=O)C2(c3ccccc3C(C)C)CN(c3ncc(C#N)cn3)C2)c(OC(F)F)n1` [Ex 18-24, 1-(5-cyanopyrimidin-2-yl)-N-(2-(difluoromethoxy)-6-methylpyridin-3-yl)-3-(2-isopropylphenyl)azetidine-3-carboxamide], 2 nM corresponded to half-maximal inhibition (IC50).

Consider `CC(C)c1ccccc1C1(C(=O)Nc2cccnc2OC(F)F)CN(c2ncc(C#N)cn2)C1` [Ex 18-25, 1-(5-cyanopyrimidin-2-yl)-N-(2-(difluoromethoxy)pyridin-3-yl)-3-(2-isopropylphenyl)azetidine-3-carboxamide], for which the IC50 turned out to be 5 nM.

Take `Cc1cc(Cl)nc(N2CC(C(=O)Nc3ccc(C)nc3OC(F)F)(c3ccccc3C(C)C)C2)n1` [Ex 18-26, 1-(4-chloro-6-methylpyrimidin-2-yl)-N-(2-(difluoromethoxy)-6-methylpyridin-3-yl)-3-(2-isopropylphenyl)azetidine-3-carboxamide]: the IC50 came to 48 nM.

In turn, `CCOC(=O)c1coc(N2CC(C(=O)Nc3ccc(C)nc3OC(F)F)(c3ccccc3C(C)C)C2)n1` [Ex 18-27, ethyl 2-(3-((2-(difluoromethoxy)-6-methylpyridin-3-yl)carbamoyl)-3-(2-isopropylphenyl)azetidin-1-yl)oxazole-4-carboxylate] gave an IC50 of 10 nM.

Turning to `Cc1ccc(NC(=O)C2(c3ccccc3C(C)C)CN(c3nc(C(=O)O)co3)C2)c(OC(F)F)n1` [Ex 18-28, 2-(3-((2-(difluoromethoxy)-6-methylpyridin-3-yl)carbamoyl)-3-(2-isopropylphenyl)azetidin-1-yl)oxazole-4-carboxylic acid], the IC50 is 6 nM.

For the molecule `CCOC(=O)c1coc(N2CC(C(=O)Nc3cccnc3OC(F)F)(c3ccccc3C(C)C)C2)n1` [Ex 18-29, ethyl 2-(3-((2-(difluoromethoxy)pyridin-3-yl)carbamoyl)-3-(2-isopropylphenyl)azetidin-1-yl)oxazole-4-carboxylate], the IC50 came to 71 nM.

As for `CC(C)c1ccccc1C1(C(=O)Nc2cccnc2OC(F)F)CN(c2nc(C(=O)O)co2)C1` [Ex 18-30, 2-(3-((2-(difluoromethoxy)pyridin-3-yl)carbamoyl)-3-(2-isopropylphenyl)azetidin-1-yl)oxazole-4-carboxylic acid], the midpoint of inhibition, the IC50, lay at 41 nM.

`CCOC(=O)c1cnc(N2CC(C(=O)Nc3ccc(C)nc3OC(F)F)(c3ccccc3C(C)C)C2)o1` [Ex 18-31, ethyl 2-(3-((2-(difluoromethoxy)-6-methylpyridin-3-yl)carbamoyl)-3-(2-isopropylphenyl)azetidin-1-yl)oxazole-5-carboxylate] yielded an IC50 of 20 nM. This IC50 is about 2-fold lower than that of the molecule before.

Take `Cc1ccc(NC(=O)C2(c3ccccc3C(C)C)CN(c3ncc(C(=O)O)o3)C2)c(OC(F)F)n1` [Ex 18-32, 2-(3-((2-(difluoromethoxy)-6-methylpyridin-3-yl)carbamoyl)-3-(2-isopropylphenyl)azetidin-1-yl)oxazole-5-carboxylic acid]: the IC50 was found to be 34 nM.

The molecule `Cc1ccc(NC(=O)C2(c3ccccc3C(C)C)CN(c3ncc(F)cn3)C2)c(OC(F)F)n1` [Ex 18-33, N-(2-(difluoromethoxy)-6-methylpyridin-3-yl)-1-(5-fluoropyrimidin-2-yl)-3-(2-isopropylphenyl)azetidine-3-carboxamide] returned a 50% inhibitory concentration (IC50) of 3 nM.

In turn, `Cc1ccc(NC(=O)C2(c3ccccc3C(C)C)CN(c3ccnc(C)n3)C2)c(OC(F)F)n1` [Ex 18-34, N-(2-(difluoromethoxy)-6-methylpyridin-3-yl)-3-(2-isopropylphenyl)-1-(2-methylpyrimidin-4-yl)azetidine-3-carboxamide] registered an IC50 of 3 nM. This lies in the single-digit nanomolar range.

Regarding `COC(=O)c1cnc(N2CC(C(=O)Nc3ccc(C)nc3OC(F)F)(c3ccccc3C(C)C)C2)n1C` [Ex 18-35, methyl 2-(3-((2-(difluoromethoxy)-6-methylpyridin-3-yl)carbamoyl)-3-(2-isopropylphenyl)azetidin-1-yl)-1-methyl-1H-imidazole-5-carboxylate], the IC50 amounted to 30 nM.

On to `Cc1ccc(NC(=O)C2(c3ccccc3C(C)C)CN(c3ncc(C(=O)O)n3C)C2)c(OC(F)F)n1` [Ex 18-36, 2-(3-((2-(difluoromethoxy)-6-methylpyridin-3-yl)carbamoyl)-3-(2-isopropylphenyl)azetidin-1-yl)-1-methyl-1H-imidazole-5-carboxylic acid], for which inhibition was half-maximal at 16 nM (IC50).

`Cc1ccc(NC(=O)C2(c3ccccc3C(C)C)CN(C3=NC(=O)CO3)C2)c(OC(F)F)n1` [Ex 19, N-(2-(difluoromethoxy)-6-methylpyridin-3-yl)-3-(2-isopropylphenyl)-1-(4-oxo-4,5-dihydrooxazol-2-yl)azetidine-3-carboxamide] registered a 50% inhibitory concentration (IC50) of 4 nM. This IC50 lies about 4-fold lower than the previous one.

Molecule `Cc1ccc(NC(=O)C2(c3ccccc3C(C)C)CN(c3nnn[nH]3)C2)c(OC(F)F)n1` [Ex 20, N-(2-(difluoromethoxy)-6-methylpyridin-3-yl)-3-(2-isopropylphenyl)-1-(1H-tetrazol-5-yl)azetidine-3-carboxamide] came in with an IC50 of 37 nM.

`Cc1ccc(NC(=O)C2(c3ccccc3C(C)C)CN(c3noc(O)n3)C2)c(OC(F)F)n1` [Ex 21, N-(2-(difluoromethoxy)-6-methylpyridin-3-yl)-1-(5-hydroxy-1,2,4-oxadiazol-3-yl)-3-(2-isopropylphenyl)azetidine-3-carboxamide] yielded an IC50 of 12 nM. Against the preceding molecule, the IC50 is about 3.1-fold lower.

`Cc1ccc(NC(=O)C2(c3ccccc3C3CC3)CNC2)c(OC(F)F)n1` [Ex 23, 3-(2-cyclopropylphenyl)-N-(2-(difluoromethoxy)-6-methylpyridin-3-yl)azetidine-3-carboxamide]: the IC50 was 664 nM. Compared with the last molecule, the IC50 is about 55-fold higher.

`Cc1ccc(NC(=O)C2(c3ccccc3C3CCC3)CNC2)c(OC(F)F)n1` [Ex 24, 3-(2-cyclobutylphenyl)-N-(2-(difluoromethoxy)-6-methylpyridin-3-yl)azetidine-3-carboxamide] yielded an IC50 of 31 nM. Against the preceding molecule, the IC50 is about 21-fold lower.
